“And” between values parts separate entries of the source, which are not always exact repeats. Identical values can stand only once.

In general, IC50 refers to the midpoint of a concentration-inhibition curve. A higher IC50 goes with a need for much substance. The term remaining activity denotes the share of the control activity or signal that is left under treatment. Low values mean a large loss of activity, high ones a small loss of activity.

The test system of one data set is HL-60 cell line. Briefly: Antiproliferative activity and interference with DAU (MTT), HL-60. To be noted: for HL-60 proliferation (MTT), mean of independent replicates: Suppl.Fig.8c. The format is cell-based, human. On the procedure: Antiproliferative effects of studied compounds alone or in combination with DAU were assayed, as described previously, using HL-60 cell line (ATCC® Catalog Number: CCL-240TM, lot 5036502; American Type Culture Collection, Manassas, VA) derived from a patient with acute promyelocytic leukaemia. The cells were cultured in RPMI-1640 medium supplemented with 10% FBS, 50 U/mL penicillin, and 50 μg/mL streptomycin solution at 37 °C in a humidified atmosphere of 5% CO2. For the experiments, cells were seeded on 96-well plates (TPP, Switzerland) at a density of 10,000 cells per well ([…]). […] Proliferation was assessed by the MTT assay. Briefly, 25 µL of 3 mg/mL MTT solution (3(4,5-dimethyl-2-thiazolyl)-2,5-diphenyl-2H-tetrazolium bromide) in PBS was added to each well, and after 2 h of incubation at 37 °C the cells were lysed with lysis buffer (isopropanol, 0.1 M HCl, 5% Triton X-100) for 30 minutes at RT. After the formazan was dissolved, the absorbance of the samples was measured at 570 nm and a reference wavelength at 690 nm (the 690 nm background absorbance was subtracted from the 570 nm values). Data are expressed as mean ± SD from four independent experiments. Normalized values were plotted as a function of inhibitor concentration to determine IC50 values using Prism 9 (GraphPad). Statistical significance was evaluated by ANOVA with the Holm-Sidak post hoc test (P ≤ 0.05, marked as significant difference against control (c) or DAU (d)).

Another data set deals with caspase 3/7. The data set is described as follows: Caspase 3/7 activity in NVCM (Caspase-Glo). The format is cell-based, rat. As to conditions: for Csp3/7 activity: independent replicates. On the procedure:
Caspase activity was assessed on NVCM cells using luciferase-based kits for caspase 3/7, 8 and 9 (Caspase-Glo® 3/7, 8 and 9 assay systems; Promega) according to the manufacturer’s instructions on 384-well plates (Greiner Bio-One). Luminescence signal was measured using Tecan M200 multifunctional plate-reader. All measured groups were corrected for total protein concentration (BCA assay) and were expressed as fold change of the signal over corresponding untreated control group. Each presented data point was obtained from distinct sample. Statistical significance was determined using ratio paired t-test, two-tailed.

In a further data set the test system is γH2AX. Briefly: γH2AX levels in HL-60 cells (Western blotting). The format is cell-based, human. As to conditions: for γH2AX level, mean of independent replicates: Suppl.Fig.8d.
In another data set the target is T1, TOP2B C88Y (Homo sapiens, UniProt Q02880, C93Y).
T1 construct: Using recombinant full-length human TOP2A and TOP2B enzymes; YFP (N, cleaved yes); made in house; host or cells: HEK293F
T1 sequence (Q02880 1-1621 isoform Q02880-2 C88Y): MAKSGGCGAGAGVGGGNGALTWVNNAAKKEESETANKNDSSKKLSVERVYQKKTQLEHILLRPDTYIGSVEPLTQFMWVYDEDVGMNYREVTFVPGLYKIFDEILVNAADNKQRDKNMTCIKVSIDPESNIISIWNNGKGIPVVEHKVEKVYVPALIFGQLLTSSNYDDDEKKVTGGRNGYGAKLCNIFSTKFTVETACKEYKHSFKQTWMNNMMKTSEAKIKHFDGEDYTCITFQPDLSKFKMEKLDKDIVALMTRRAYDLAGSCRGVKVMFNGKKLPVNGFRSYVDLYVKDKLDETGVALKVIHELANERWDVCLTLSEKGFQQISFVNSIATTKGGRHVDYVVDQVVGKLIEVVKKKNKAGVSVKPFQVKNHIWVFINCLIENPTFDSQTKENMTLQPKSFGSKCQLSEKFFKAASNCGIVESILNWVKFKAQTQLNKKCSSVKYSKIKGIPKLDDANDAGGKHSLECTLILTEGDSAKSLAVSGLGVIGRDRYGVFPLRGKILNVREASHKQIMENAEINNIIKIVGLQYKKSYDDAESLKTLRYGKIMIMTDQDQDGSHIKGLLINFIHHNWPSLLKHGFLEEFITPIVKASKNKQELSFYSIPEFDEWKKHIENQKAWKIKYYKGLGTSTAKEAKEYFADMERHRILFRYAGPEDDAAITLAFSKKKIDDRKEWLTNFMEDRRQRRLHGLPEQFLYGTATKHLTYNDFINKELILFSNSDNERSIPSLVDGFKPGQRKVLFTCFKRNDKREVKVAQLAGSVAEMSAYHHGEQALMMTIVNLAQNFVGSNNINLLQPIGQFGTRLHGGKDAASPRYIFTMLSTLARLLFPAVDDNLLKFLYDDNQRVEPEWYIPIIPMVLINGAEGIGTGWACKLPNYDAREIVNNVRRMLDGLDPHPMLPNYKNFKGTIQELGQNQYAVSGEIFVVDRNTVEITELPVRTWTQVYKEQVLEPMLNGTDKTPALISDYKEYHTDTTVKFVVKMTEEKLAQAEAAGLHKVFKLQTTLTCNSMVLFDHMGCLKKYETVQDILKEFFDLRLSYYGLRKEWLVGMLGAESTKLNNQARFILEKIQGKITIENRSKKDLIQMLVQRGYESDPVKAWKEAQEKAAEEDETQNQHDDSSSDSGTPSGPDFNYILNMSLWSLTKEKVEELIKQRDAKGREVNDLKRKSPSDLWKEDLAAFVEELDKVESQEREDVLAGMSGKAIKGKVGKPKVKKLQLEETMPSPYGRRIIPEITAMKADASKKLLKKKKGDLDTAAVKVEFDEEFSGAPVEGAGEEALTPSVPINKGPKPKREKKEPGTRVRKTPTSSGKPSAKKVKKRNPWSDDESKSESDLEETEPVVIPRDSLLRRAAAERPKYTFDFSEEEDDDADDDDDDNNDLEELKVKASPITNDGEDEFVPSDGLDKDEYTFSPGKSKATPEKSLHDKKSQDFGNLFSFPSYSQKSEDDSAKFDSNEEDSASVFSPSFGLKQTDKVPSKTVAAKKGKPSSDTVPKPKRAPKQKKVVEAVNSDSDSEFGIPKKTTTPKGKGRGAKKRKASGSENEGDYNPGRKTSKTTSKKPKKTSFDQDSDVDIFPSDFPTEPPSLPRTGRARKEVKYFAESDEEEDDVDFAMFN
The data set is described as follows: ATPase activity of TOP2B C88Y mutant. The format is biochemical. As to conditions: for effect of C88Y mutation in TOP2B on inhibition: vs TOP2B WT. As to the method: The human topoisomerase II decatenation assay was performed to determine the inhibitory effects of BNS-22 and new compounds as previously described with minor modifications[14],[36]. The assay was performed using recombinant human TOP2A or TOP2B generated using the HEK293F YFP-tag expression system as previously described[18],[19],[36]. Briefly, plasmids encoding YFP-TOP2A or YFP-TOP2B were transfected into HEK293F cells (Catalog number 11625019, Thermofisher Scientific), and TOP2 proteins were isolated from cell lysates by anti-YFP nanobody affinity chromatography. After elution by TEV protease cleavage, TOP2 proteins were FPLC purified by sequential cation exchange and size exclusion chromatography. Plasmid encoding TOP2B C88Y was generated by round-the-horn PCR mutagenesis and the sequence was verified by full-plasmid sequencing. Purified TOP2 proteins were stored in a storage buffer containing 20 mM HEPES pH 7.5, 500 mM NaCl, 0.5 mM TCEP, 25% (v/v) glycerol at -80 °C. For decatenation assays, purified TOP2 proteins were incubated with 200 ng kDNA (Topogen) in a reaction buffer containing 50 mM Tris−HCl (pH 8), 100 mM NaCl, 10 mM MgCl2, 0.5 mM DTT, 2 mM ATP, 0.1 mM tris(2-carboxyethyl)phosphine (TCEP), 5% (v/v) glycerol, 70 μg/mL bovine serum albumin, and 1/10 volume of each compound diluted in 10% DMSO (final DMSO concentration 1%) for 40 min at 37 °C. The reaction was then stopped by the addition of gel loading buffer (0.5 volumes of 60% (w/v) glycerol, 60 mM EDTA, 20 mM Tris−HCl (pH 7.5), 0.5 mg/mL bromophenol blue) and the samples were placed on ice. Reaction products were resolved by agarose gel electrophoresis in TBE buffer containing GelRed stain (Biotium). Gels were visualized using an iBright CL1000 (Thermofisher Scientific). Band intensities were quantified using FIJI, and the signal of the treated samples was normalized to the value of the control (untreated sample; 100%) present on the same gel. The normalized signal of three independent measurements was then expressed as mean ± SD. Each presented data point was obtained from distinct sample. Normalized values were plotted as a function of inhibitor concentration to determine IC50 values by nonlinear regression with variable slope using Prism 9 (GraphPad).
Topoisomerase proteins were diluted to 500 nM in storage buffer containing 20 mM HEPES pH 7.5, 500 mM NaCl, 0.5 mM TCEP, 25% glycerol, and 0.2 mg/mL BSA prior to use. A coupled assay was used to measure TOP2-catalyzed ATP hydrolysis in vitro[37] in Costar 96-well plates (Corning Incorporated). […] Reaction plates were pre-warmed to 30 °C for 5 min and ATP was added last to initiate the reaction. The reaction plate was placed in a CLARIOstarPlus plate reader (BMG Labtech) to measure NADH fluorescence at 30 °C every 30 s over 120 cycles using a 340-60 excitation filter and a 480-100 emission filter. Background fluorescence signals calculated from wells containing no ATP were subtracted from each measurement. The slope of NADH fluorescence decay in each well was calculated using the MARS software (BMG Labtech) and reaction wells that lacked topoisomerase inhibitor to account for photobleaching of NADH fluorescence served as background subtraction. Each presented data point was obtained from distinct sample. Values were normalized to untreated controls and plotted as a function of inhibitor concentration to determine IC50 values using Prism 9 (GraphPad).

As for `COc1cccc2c1C(=O)c1c(O)c3c(c(O)c1C2=O)C[C@@](O)(C(C)=O)C[C@@H]3O[C@H]1C[C@H](N)[C@H](O)[C@H](C)O1` [DAU, daunorubicin, reference compound], the “HL-60 proliferation (MTT), mean of independent replicates” value (“HL-60 proliferation (MTT), mean” for short) in the data set with HL-60 cell line (DAU 1.2 µM alone) is listed as 35.1587. Also, in the data set on caspase 3/7 (DAU 1.2 μM alone), the “Csp3/7 activity, mean” value is given as 3.236 fold change; the Csp3/7 activity was 2.392 fold change and 2.445 fold change and 4.746 fold change and 2.53 fold change and 4.167 fold change and 3.136 fold change. Besides, the “γH2AX level, mean of independent replicates” value (“γH2AX level, mean” below) in the data set with γH2AX (DAU 1.2 µM alone (mean = 100)) is on record as 100.
As for `CCCc1cc(=O)oc2c(C(=O)N3CCCc4ccccc43)c(OCCN3CCN(C)CC3)ccc12` [topobexin (9)], the “effect on antiproliferative effects of DAU” value in the data set with HL-60 cell line (HL-60, any concentration tested) is “did not decrease the antiproliferative effects of DAU”. Further, the “HL-60 proliferation (MTT), mean” value was determined as 39.4171 in the data set with HL-60 cell line (compound 0.01 µM + DAU 1.2 µM); 37.298 with HL-60 cell line (compound 0.1 µM + DAU 1.2 µM); 37.3478 in the data set on HL-60 cell line (compound 1 µM + DAU 1.2 µM); 18.3679 in the data set with HL-60 cell line (compound 10 µM + DAU 1.2 µM); 13.5189 in the data set on HL-60 cell line (compound 30 µM + DAU 1.2 µM); 1.772 with HL-60 cell line (compound 100 µM + DAU 1.2 µM). Also, the “HL-60 proliferation (MTT), mean” value in the data set on HL-60 cell line (compound alone 0.01 µM) came out at 99.5782; with HL-60 cell line (compound alone 0.1 µM) it was 97.2193; with HL-60 cell line (compound alone 1 µM), 91.5968; in the data set with HL-60 cell line (compound alone 10 µM) it was 13.6521; in the data set on HL-60 cell line (compound alone 30 µM), 12.3063; in the data set on HL-60 cell line (compound alone 100 µM), 1.671. Further, the “Csp3/7 activity, mean” value with caspase 3/7 (Cmpd 9 10 μM + DAU 1.2 μM) was found to be 1.924 fold change; in the data set on caspase 3/7 (Cmpd 9 10 μM alone) it was 0.9751 fold change. In addition, the Csp3/7 activity with caspase 3/7 (Cmpd 9 10 μM + DAU 1.2 μM) was 1.455 fold change and 1.638 fold change and 2.77 fold change and 1.323 fold change and 2.6893 fold change and 1.665 fold change; with caspase 3/7 (Cmpd 9 10 μM alone), 1.249 fold change and 1.002 fold change and 1.008 fold change and 0.6241 fold change and 0.959 fold change and 1.009 fold change. In the data set with caspase 3/7 (NVCM), the “DAU-induced apoptotic signaling by caspases 3/7, 8, and 9” value is given as “reduces DAU-induced apoptotic signaling”. Moreover, in the data set with γH2AX (HL-60, DAU, highest concentration tested), the “concentration with statistically significant decrease in γH2AX levels” value was 10 µM. The “γH2AX level, mean” value in the data set on γH2AX (compound 0.1 µM + DAU 1.2 µM, DAU mean = 100) was determined as 85.0292; in the data set on γH2AX (compound 0.3 µM + DAU 1.2 µM, DAU mean = 100) it was 71.0118; in the data set with γH2AX (compound 1 µM + DAU 1.2 µM, DAU mean = 100), 59.3884; in the data set with γH2AX (compound 3 µM + DAU 1.2 µM, DAU mean = 100) it was 59.6746; in the data set on γH2AX (compound 10 µM + DAU 1.2 µM, DAU mean = 100) it was 31.6085; with γH2AX (compound alone 0.1 µM, DAU mean = 100), 21.4098. The “γH2AX level, mean” value in the data set on γH2AX (compound alone 0.3 µM, DAU mean = 100) is 25.2396; with γH2AX (compound alone 1 µM, DAU mean = 100), 23.449; in the data set on γH2AX (compound alone 3 µM, DAU mean = 100), 19.8181; with γH2AX (compound alone 10 µM, DAU mean = 100) it was 24.2375. At TOP2B C88Y, this molecule registered an IC50 of 1.88 µM. The molecule also came in with a remaining activity at 0.0625 µM on TOP2B C88Y (0.0625 μM, independent replicates, normalized to 0 drug) of 98.2%. For the same molecule, the remaining activity at 0.125 µM on TOP2B C88Y (0.125 μM, independent replicates, normalized to 0 drug) turned out to be 97.9%. In addition, the remaining activity at 0.25 µM at TOP2B C88Y (0.25 μM, independent replicates, normalized to 0 drug) came out at 95.9%. The same molecule had a remaining activity at 0.5 µM at TOP2B C88Y (0.5 μM, independent replicates, normalized to 0 drug) of 84.7%. On TOP2B C88Y (1 μM, independent replicates, normalized to 0 drug), this molecule had a remaining activity at 1 µM of 69.3%. At TOP2B C88Y (2 μM, independent replicates, normalized to 0 drug), this molecule came in with a remaining activity at 2 µM of 43.5%. The same molecule yielded a remaining activity at 4 µM at TOP2B C88Y (4 μM, independent replicates, normalized to 0 drug) of 18.5%. This molecule had a remaining activity at 8 µM at TOP2B C88Y (8 μM, independent replicates, normalized to 0 drug) of 6.37%. Further, the “effect of C88Y mutation in TOP2B on inhibition” value at TOP2B C88Y is on record as “conferred significant resistance to inhibition”.
As to `CCCc1cc(=O)oc2c(C(=O)N3CCCc4ccccc43)c(OC)cc(OC)c12` [BNS-22], at TOP2B C88Y, half-maximal inhibition (IC50) required 1.55 µM and the “effect of C88Y mutation in TOP2B on inhibition” value is “did not alter inhibition”.

(Values after paper PMC12116762, “Topobexin targets the Topoisomerase II ATPase domain for beta isoform-selective inhibition and anthracycline cardioprotection” (Nature Communications, 2025).)
